System: banana rooting plantlets
Assay: CSF kill curves in banana rooting plantlets (in medium, spraying, both)
Type: in vivo
Procedure: The effect of CSF was also evaluated in rooting plantlets. Three methods were tested, (i) incorporation of CSF in the rooting medium (RM), (ii) spraying the plantlets with CSF solution and (iii) incorporation in the media of a lower concentration of CSF (0.5 mg/L) and spraying the plantlets (concurrently).
Six CSF concentrations, 0, 0.05, 0.5, 5, 50 and 100 mg/L, were tested in rooting plantlets.
Rooting banana plantlets were cleared of roots and split from the corm to have single shoots for testing with RM medium with or without CSF. Five to six shoots with similar morphology were inoculated into each phytotray.
For spraying tests, CSF solutions (concentrations above) were prepared in sterile deionised water or in 0.015% Silwett L-77. One mL of solution was sprayed onto each phytotray (five shoots per phytotray, so 1 mL between five shoots). For control conditions (Omg/L CSF), 1 mL of deionised water was used.
A range of CSF concentrations (0, 0.05, 0.5, 5, 50, 100 mg/L) were tested in banana rooting shoots. Banana shoots were separated from roots and split to give single shoots that were inoculated into new media to determine the effect of CSF over a month of exposure. To assess the effectiveness of CSF in banana three approaches were tested: (i) incorporation of the toxin in RM medium, (ii) spraying the shoots, and (iii) spraying the shoots plus incorporation of a small amount of CSF […] in RM.

COc1nc(C)nc(NC(=O)NS(=O)(=O)c2ccccc2Cl)n1 [CSF, chlorsulfuron]
Severity of symptoms (0.05 mg/L CSF in the medium plus spraying with CSF): an increase in the severity of symptoms | Root development (CSF in medium, even at 0.05 mg/L): root development was not observed | Effective CSF concentration added to the medium (plantlets did not develop, chlorotic phenotype) (CSF incorporated in RM medium, repeated 3 times): 0.5 mg/L | Lowest concentration that delayed shoot development (spraying banana shoots): 5 mg/L | Shoot development (weekly spraying with 0.5 mg/L CSF): quite effective at delaying banana shoot development

— patent US20250034586A1, “METHOD FOR EDITING BANANA GENES” (Tropic Biosciences UK Limited, priority 2021, published 2025)
